According to patent US20180319810A1, “SUBSTITUTED BRIDGED UREA ANALOGS AS SIRTUIN MODULATORS” (GlaxoSmithKline Intellectual Property (No.2) Limited, priority 2014, published 2018):

Target: T1, SIRT1 (Homo sapiens, UniProt Q96EB6)
T1 sequence (Q96EB6 1-747): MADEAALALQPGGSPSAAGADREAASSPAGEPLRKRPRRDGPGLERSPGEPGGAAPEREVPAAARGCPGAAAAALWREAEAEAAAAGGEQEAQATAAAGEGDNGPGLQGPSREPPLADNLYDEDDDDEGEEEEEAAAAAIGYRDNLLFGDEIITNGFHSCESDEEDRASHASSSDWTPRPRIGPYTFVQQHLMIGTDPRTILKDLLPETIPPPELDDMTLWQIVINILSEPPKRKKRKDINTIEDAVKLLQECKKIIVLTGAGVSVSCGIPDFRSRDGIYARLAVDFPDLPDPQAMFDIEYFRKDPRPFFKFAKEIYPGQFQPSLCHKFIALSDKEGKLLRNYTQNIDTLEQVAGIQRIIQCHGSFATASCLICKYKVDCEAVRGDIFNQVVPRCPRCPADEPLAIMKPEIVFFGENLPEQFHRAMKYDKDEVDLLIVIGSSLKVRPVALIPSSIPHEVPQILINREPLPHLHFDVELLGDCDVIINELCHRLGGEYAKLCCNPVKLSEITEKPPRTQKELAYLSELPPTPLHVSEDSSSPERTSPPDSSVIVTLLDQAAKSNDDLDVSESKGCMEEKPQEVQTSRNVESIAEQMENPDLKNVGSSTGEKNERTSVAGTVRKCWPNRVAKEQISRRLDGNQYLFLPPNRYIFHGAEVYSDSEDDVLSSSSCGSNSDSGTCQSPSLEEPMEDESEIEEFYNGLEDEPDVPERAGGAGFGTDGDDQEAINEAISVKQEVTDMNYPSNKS
Experiment: Trp mass spectrometry assay of SIRT1 activation
Format: biochemical
Conditions: Trp peptide Ac-R-H-K-K(Ac)-W-NH2 0.5 μM, 120 μM βNAD+, 10 nM SIRT1, 25 min, 25° C.

SMILES	TRP Activity (EC1.5, concentration of compound required to increase SIRT1 activity by 50% over control)	TRP MAX RESP (percent maximum fold activation relative to control)
C[C@@H](NC(=O)c1ncc2c(n1)N(C(=O)Nc1cc(OC[C@@H](O)CO)ncn1)[C@H]1CCCN2C1)C(F)(F)F [Example 75, (9S)—N10-(6-((S)-2,3-dihydroxypropoxy)pyrimidin-4-yl)-N2-((R)-1,1,1-trifluoropropan-2-yl)-8,9-dihydro-6H-5,9-methanopyrimido[4,5-b][1,4]diazocine-2,10(7H)-dicarboxamide]	B (EC1.5 1-25 μM)	A (Fold activation ≥150%)
C[C@@H](NC(=O)c1ncc2c(n1)N(C(=O)Nc1nccc(OC[C@@H](O)CO)n1)[C@H]1CCCN2C1)C(F)(F)F [Example 76, (9S)—N10-(4-((S)-2,3-dihydroxypropoxy)pyrimidin-2-yl)-N2-((R)-1,1,1-trifluoropropan-2-yl)-8,9-dihydro-6H-5,9-methanopyrimido[4,5-b][1,4]diazocine-2,10(7H)-dicarboxamide]	B (EC1.5 1-25 μM)	A (Fold activation ≥150%)
C[C@@H](NC(=O)c1ncc2c(n1)N(C(=O)Nc1cc(OC[C@H](O)CO)ncn1)[C@H]1CCCN2C1)C(F)(F)F [Example 77, (9S)—N10-(6-((R)-2,3-dihydroxypropoxy)pyrimidin-4-yl)-N2-((R)-1,1,1-trifluoropropan-2-yl)-8,9-dihydro-6H-5,9-methanopyrimido[4,5-b][1,4]diazocine-2,10(7H)-dicarboxamide]	B (EC1.5 1-25 μM)	A (Fold activation ≥150%)
C[C@@H](NC(=O)c1ncc2c(n1)N(C(=O)Nc1cccc(OC[C@H](O)CO)n1)[C@H]1CCCN2C1)C(F)(F)F [Example 78, (9S)—N10-(6-((R)-2,3-dihydroxypropoxy)pyridin-2-yl)-N2-((R)-1,1,1-trifluoropropan-2-yl)-8,9-dihydro-6H-5,9-methanopyrimido[4,5-b][1,4]diazocine-2,10(7H)-dicarboxamide]	B (EC1.5 1-25 μM)	A (Fold activation ≥150%)
O=C(Nc1cncc(OC[C@H](O)CO)c1)N1c2nc(-c3cccc(C(F)(F)F)c3)ncc2N2CCC[C@H]1C2 [Example 81, (9S)—N-(5-((R)-2,3-dihydroxypropoxy)pyridin-3-yl)-2-(3-(trifluoromethyl)phenyl)-8,9-dihydro-6H-5,9-methanopyrimido[4,5-b][1,4]diazocine-10(7H)-carboxamide]	A (EC1.5<1 μM)	A (Fold activation ≥150%)
O=C(Nc1ccc(OC[C@H](O)CO)nc1)N1c2nc(-c3cccc(C(F)(F)F)c3)ncc2N2CCC[C@H]1C2 [Example 82, (9S)—N-(6-((R)-2,3-dihydroxypropoxy)pyridin-3-yl)-2-(3-(trifluoromethyl)phenyl)-8,9-dihydro-6H-5,9-methanopyrimido[4,5-b][1,4]diazocine-10(7H)-carboxamide]	A (EC1.5<1 μM)	A (Fold activation ≥150%)
O=C(Nc1ccccn1)N1c2nc(-c3cccc(C(F)(F)F)c3)ncc2N2CCC[C@H]1C2 [Example 86, (9S)—N-(pyridin-2-yl)-2-(3-(trifluoromethyl)phenyl)-8,9-dihydro-6H-5,9-methanopyrimido[4,5-b][1,4]diazocine-10(7H)-carboxamide]	A (EC1.5<1 μM)	–
O=C(NC1CC1)N1c2nc(-c3cccc(C(F)(F)F)c3)ncc2N2CCC[C@H]1C2 [Example 87, (9S)—N-cyclopropyl-2-(3-(trifluoromethyl)phenyl)-8,9-dihydro-6H-5,9-methanopyrimido[4,5-b][1,4]diazocine-10(7H)-carboxamide]	A (EC1.5<1 μM)	A (Fold activation ≥150%)

The remaining lines, values ahead:

TRP Activity (EC1.5, concentration of compound required to increase SIRT1 activity by 50% over control)	TRP MAX RESP (percent maximum fold activation relative to control)	SMILES
A (EC1.5<1 μM)	A (Fold activation ≥150%)	O=C(Nc1ccnc(OC[C@@H](O)CO)n1)N1c2nc(-c3cccc(C(F)(F)F)c3)ncc2N2CCC[C@H]1C2 [Example 79, (9S)—N-(2-((S)-2,3-dihydroxypropoxy)pyrimidin-4-yl)-2-(3-(trifluoromethyl)phenyl)-8,9-dihydro-6H-5,9-methanopyrimido[4,5-b][1,4]diazocine-10(7H)-carboxamide]
A (EC1.5<1 μM)	A (Fold activation ≥150%)	O=C(Nc1cc(OC[C@H](O)CO)ccn1)N1c2nc(-c3cccc(C(F)(F)F)c3)ncc2N2CCC[C@H]1C2 [Example 80, (9S)—N-(4-((R)-2,3-dihydroxypropoxy)pyridin-2-yl)-2-(3-(trifluoromethyl)phenyl)-8,9-dihydro-6H-5,9-methanopyrimido[4,5-b][1,4]diazocine-10(7H)-carboxamide]
A (EC1.5<1 μM)	A (Fold activation ≥150%)	O=C(Nc1cnc(OC[C@@H](O)CO)cn1)N1c2nc(-c3cccc(C(F)(F)F)c3)ncc2N2CCC[C@H]1C2 [Example 83, (9S)—N-(5-((S)-2,3-dihydroxypropoxy)pyrazin-2-yl)-2-(3-(trifluoromethyl)phenyl)-8,9-dihydro-6H-5,9-methanopyrimido[4,5-b][1,4]diazocine-10(7H)-carboxamide]
A (EC1.5<1 μM)	A (Fold activation ≥150%)	O=C(Nc1cccc(OC[C@@H](O)CO)n1)N1c2nc(-c3cccc(C(F)(F)F)c3)ncc2N2CCC[C@H]1C2 [Example 84, (9S)—N-(6-((S)-2,3-dihydroxypropoxy)pyridin-2-yl)-2-(3-(trifluoromethyl)phenyl)-8,9-dihydro-6H-5,9-methanopyrimido[4,5-b][1,4]diazocine-10(7H)-carboxamide]
A (EC1.5<1 μM)	A (Fold activation ≥150%)	O=C(Nc1ccnc(OC[C@@H](O)CO)c1)N1c2nc(-c3cccc(C(F)(F)F)c3)ncc2N2CCC[C@H]1C2 [Example 85, (9S)—N-(2-((S)-2,3-dihydroxypropoxy)pyridin-4-yl)-2-(3-(trifluoromethyl)phenyl)-8,9-dihydro-6H-5,9-methanopyrimido[4,5-b][1,4]diazocine-10(7H)-carboxamide]
A (EC1.5<1 μM)	A (Fold activation ≥150%)	O=C(Nc1ccnc(OC[C@H](O)CO)n1)N1c2nc(-c3cccc(C(F)(F)F)c3)ncc2N2CCC[C@H]1C2 [Example 88, (9S)—N-(2-((R)-2,3-dihydroxypropoxy)pyrimidin-4-yl)-2-(3-(trifluoromethyl)phenyl)-8,9-dihydro-6H-5,9-methanopyrimido[4,5-b][1,4]diazocine-10(7H)-carboxamide]
A (EC1.5<1 μM)	A (Fold activation ≥150%)	O=C(Nc1cccc(OC[C@H](O)CO)n1)N1c2nc(-c3cccc(C(F)(F)F)c3)ncc2N2CCC[C@H]1C2 [Example 89, (9S)—N-(6-((R)-2,3-dihydroxypropoxy)pyridin-2-yl)-2-(3-(trifluoromethyl)phenyl)-8,9-dihydro-6H-5,9-methanopyrimido[4,5-b][1,4]diazocine-10(7H)-carboxamide]
A (EC1.5<1 μM)	A (Fold activation ≥150%)	O=C(Nc1ccnc(OC[C@H](O)CO)c1)N1c2nc(-c3cccc(C(F)(F)F)c3)ncc2N2CCC[C@H]1C2 [Example 90, (9S)—N-(2-((R)-2,3-dihydroxypropoxy)pyridin-4-yl)-2-(3-(trifluoromethyl)phenyl)-8,9-dihydro-6H-5,9-methanopyrimido[4,5-b][1,4]diazocine-10(7H)-carboxamide]
A (EC1.5<1 μM)	A (Fold activation ≥150%)	O=C(Nc1cc(OC[C@@H](O)CO)ccn1)N1c2nc(-c3cccc(C(F)(F)F)c3)ncc2N2CCC[C@H]1C2 [Example 91, (9S)—N-(4-((S)-2,3-dihydroxypropoxy)pyridin-2-yl)-2-(3-(trifluoromethyl)phenyl)-8,9-dihydro-6H-5,9-methanopyrimido[4,5-b][1,4]diazocine-10(7H)-carboxamide]
